The values that follow come from BindingDB's records for doi:10.1021/jm00057a007 (Kyowa Hakko Kogyo, 1993).

Structures can show the parent of a compound that is named as a salt. Bounds are passed on as bounds.

Assay [1] in a line: Inhibition of guinea pig acetylcholinesterase.
Assay [2] is described as follows: Inhibition of guinea pig acetylcholinesterase.

Broadly, the IC50 is the concentration that gives 50% inhibition. A low value points to higher potency. `CCN(CC)Cc1ccc(CNCCN2CCN=C2C(C#N)C#N)o1` registered a concentration for half-maximal inhibition (IC50) in assay [1] of 600 nM.

Molecule `N#CC(C#N)C1=NCCN1CCNCc1ccc(CN2CC=CCC2)o1` yielded an IC50 in assay [1] of 95 nM.

In turn, `N#CC(C#N)C1=NCCN1CCNCc1ccc(CN2CCCCCC2)o1` returned an IC50 in assay [1] of 120 nM.

In the case of `COC1CCCN(Cc2ccc(CNCCN3CCN=C3C(C#N)C#N)o2)C1` (stereo unspecified), the midpoint of inhibition in assay [1], the IC50, lay at 3300 nM.

In assay [1], `CN=C(NCCNCc1ccc(CN2CCCCC2)o1)C(C#N)C#N` yielded an IC50 of 830 nM.

The molecule `O=c1[nH]c2ccccc2n1CCNCc1ccc(CN2CCCCC2)o1` [1-{2-[(5-Piperidin-1-ylmethyl-furan-2-ylmethyl)-amino]-ethyl}-1,3-dihydro-benzoimidazol-2-one] had an IC50 in assay [1] of 1200 nM.

`CN(C)Cc1ccc(CNCCN2CCN=C2C(C#N)C#N)o1` [2-(1-{2-[(5-Dimethylaminomethyl-furan-2-ylmethyl)-amino]-ethyl}-imidazolidin-2-ylidene)-malononitrile] registered a half-inhibitory concentration (IC50) in assay [2] of 390 nM.

`N#CC(C#N)C1=NCCN1CCNCc1ccc(CN2CCOCC2)o1` [2-(1-{2-[(5-Morpholin-4-ylmethyl-furan-2-ylmethyl)-amino]-ethyl}-imidazolidin-2-ylidene)-malononitrile] gave an IC50 in assay [1] of 11000 nM.

The molecule `N#CC(C#N)c1nc2ccccc2n1CCNCc1ccc(CN2CCCCC2)o1` [2-(1-{2-[(5-Piperidin-1-ylmethyl-furan-2-ylmethyl)-amino]-ethyl}-1,3-dihydro-benzoimidazol-2-ylidene)-malononitrile] came in with a half-maximal inhibitory concentration (IC50) in assay [1] of 73 nM.

`N#CC(C#N)C1=NCCN1CCNCc1ccc(CN2CCCCC2)o1` [2-(1-{2-[(5-Piperidin-1-ylmethyl-furan-2-ylmethyl)-amino]-ethyl}-imidazolidin-2-ylidene)-malononitrile] yielded a 50% inhibitory concentration (IC50) in assay [1] of 30 nM.

In turn, `N#CC(C#N)C1=NCCN1CCNCc1ccc(CN2CCCC2)o1` [2-(1-{2-[(5-Pyrrolidin-1-ylmethyl-furan-2-ylmethyl)-amino]-ethyl}-imidazolidin-2-ylidene)-malononitrile] came in with a half-maximal inhibitory concentration (IC50) in assay [1] of 80 nM.

Take `N#CC(C#N)C1=NCCN1CCNCc1ccc(CN2CCSCC2)o1` [2-(1-{2-[(5-Thiomorpholin-4-ylmethyl-furan-2-ylmethyl)-amino]-ethyl}-imidazolidin-2-ylidene)-malononitrile]: the IC50 in assay [1] amounted to 1500 nM.

In assay [1], `CN=C(NCCNCc1ccc(CN2CCCC2)o1)C(C#N)C#N` [2-(Methylamino-{2-[(5-pyrrolidin-1-ylmethyl-furan-2-ylmethyl)-amino]-ethylamino}-methylene)-malononitrile] showed a half-maximal inhibitory concentration (IC50) of 280 nM.

`CN=C(NCCNCc1ccc(CN(C)C)o1)C(C#N)C#N` [2-({2-[(5-Dimethylaminomethyl-furan-2-ylmethyl)-amino]-ethylamino}-methylamino-methylene)-malononitrile] returned a half-maximal inhibitory concentration (IC50) in assay [1] of 630 nM.

Consider `CN=C(NCCNCc1ccc(COC)o1)C(C#N)C#N` [2-({2-[(5-Methoxymethyl-furan-2-ylmethyl)-amino]-ethylamino}-methylamino-methylene)-malononitrile], for which, in assay [1], the concentration for half-maximal inhibition (IC50) is over 20000 nM.

As for `CC1CCCCN1Cc1ccc(CNCCN2CCN=C2C(C#N)C#N)o1` (stereo unspecified) [2-[1-(2-{[5-(2-Methyl-piperidin-1-ylmethyl)-furan-2-ylmethyl]-amino}-ethyl)-imidazolidin-2-ylidene]-malononitrile], half-maximal inhibition in assay [1] (IC50) required 540 nM.

With `N#CC(C#N)C1=NCCN1CCNCc1ccc(CN2CCCC(O)C2)o1` (stereo unspecified) [2-[1-(2-{[5-(3-Hydroxy-piperidin-1-ylmethyl)-furan-2-ylmethyl]-amino}-ethyl)-imidazolidin-2-ylidene]-malononitrile], in assay [2], half-maximal inhibition (IC50) required 370 nM.

In assay [2], `CC1CCCN(Cc2ccc(CNCCN3CCN=C3C(C#N)C#N)o2)C1` (stereo unspecified) [2-[1-(2-{[5-(3-Methyl-piperidin-1-ylmethyl)-furan-2-ylmethyl]-amino}-ethyl)-imidazolidin-2-ylidene]-malononitrile] had an IC50 of 370 nM.

In assay [2], `N#CC(C#N)C1=NCCN1CCNCc1ccc(CN2CCC(O)CC2)o1` [2-[1-(2-{[5-(4-Hydroxy-piperidin-1-ylmethyl)-furan-2-ylmethyl]-amino}-ethyl)-imidazolidin-2-ylidene]-malononitrile] registered a concentration for half-maximal inhibition (IC50) of 390 nM.

`CC1CCN(Cc2ccc(CNCCN3CCN=C3C(C#N)C#N)o2)CC1` [2-[1-(2-{[5-(4-Methyl-piperidin-1-ylmethyl)-furan-2-ylmethyl]-amino}-ethyl)-imidazolidin-2-ylidene]-malononitrile]: it took 290 nM to reach half-maximal inhibition in assay [1] (IC50).

In the case of `CCN(C)Cc1ccc(CNCCN2CCN=C2C(C#N)C#N)o1` [2-{1-[2-({5-[(Ethyl-methyl-amino)-methyl]-furan-2-ylmethyl}-amino)-ethyl]-imidazolidin-2-ylidene}-malononitrile], the IC50 in assay [1] was 430 nM.

Turning to `CN=C(NCCNCc1ccc(CN(C(C)C)C(C)C)o1)C(C#N)C#N` [2-{[2-({5-[(Diisopropylamino)-methyl]-furan-2-ylmethyl}-amino)-ethylamino]-methylamino-methylene}-malononitrile], the IC50 in assay [1] was 2100 nM.

Molecule `CNc1c(NCCNCc2ccc(CN3CCCCC3)o2)c(=O)c1=O` [3-Methylamino-4-{2-[(5-piperidin-1-ylmethyl-furan-2-ylmethyl)-amino]-ethylamino}-cyclobut-3-ene-1,2-dione] had an IC50 in assay [1] of 9300 nM.

In assay [1], `COc1cc(N)c(Cl)cc1C(=O)NCCNCc1ccc(CN(C)C)o1` [4-Amino-5-chloro-N-{2-[(5-dimethylaminomethyl-furan-2-ylmethyl)-amino]-ethyl}-2-methoxy-benzamide] gave a half-maximal inhibitory concentration (IC50) of 3100 nM.

With `CCN(CC)CCNC(=O)c1cc(Cl)c(N)cc1OC` [4-amino-5-chloro-N-[2-(diethylamino)ethyl]-2-methoxy-benzamide;hydrochloride], the half-maximal inhibitory concentration (IC50) in assay [1] was over 20000 nM.

In turn, `CN(C)Cc1ccc(CNCCN2CCN=C2C[N+](=O)[O-])o1` [(5-Dimethylaminomethyl-furan-2-ylmethyl)-[2-(2-nitromethylene-imidazolidin-1-yl)-ethyl]-amine] registered an IC50 in assay [1] of over 2000 nM.
